Measurements: patent US20240263133A1, “PROCESS FOR THE ISOLATION AND CULTURE OF STRAINS, THE STRAINS, USE THEREOF, MEDIA FOR CULTURING THEREOF AND A FORM OF SCYTONEMIN” (UVERA SA, priority 2021, published 2024)

Assays:
[1] = Degree of scytonemin dispersion in selected solutions used in cosmetics; type: physicochemical; conditions: for dispersion level: shaker 1 min, ultrasonic bath 10 min
Procedure: 0.5 mg scytonemin was weighed out on an analytical balance and suspended in 1 g of the solution: • 1) Propylene glycol (INCI: Propylene Glycol) • 2) Refined apricot oil (INCI: Prunus Armeniaca (Apricot) Kernel Oil) • 3) Glycerin (INCI: Glycerin) • 4) Isohexadecane (INCI: Isohexadecane) • 5) 2-octyldodecan-1-ol ODD (INCI: Octyldodecanol) • 6) SLP Emulsifier (INCI: Sorbitan Laurate/Polyglyceryl-4 Laurate/Dilauryl Citrate)
Subsequently, the sample was mixed using a shaker for approx. 1 min and maintained for 10 min in an ultrasonic bath to achieve a higher dispersion level.
0.5 mg of scytonemin was weighed out on an analytical balance and suspended in 5 g of the composition: • 7) glycerin+glycerol stearate+water+silica+alcohol
The sample was stirred for 5 min using a laboratory stirrer

[2] = Thermogravimetric/differential thermal analysis (TG/DTA), thermal decomposition; type: physicochemical; conditions: argon, heating 15 ° C./minute, 3.7 mg
Procedure: 3.7 mg of the sample was weighed out into an alumina crucible and 34.6 mg of pure gold wire (99.999%) was added to balance the rod weight with the microbalance counterweight.
• Argon flow at 2 atm • Sample weight: 3.7 mg • Crucible: 100 μL Al2O3 • Reference crucible: Al2O3 • Temperature ramp:
Weight losses in successive stages were calculated based on the thermogravimetric curve, and the presence of exothermic and endothermic processes during sample heating were determined from the heat flow curve.

[3] = Storage stability in room conditions, absorbance spectra before and after; type: physicochemical; conditions: 25° C., 10 months
Procedure: The compound prepared in Example 1 was stored in room conditions (temp. 25° C.) for 10 months. Absorbance spectra before and after the storage test are identical, which confirms stability of the compound. […] The crystalline form of scytonemin of the invention is stable.

[4] = cited from earlier work
[5] = UV absorption, specific extinction in DMSO by spectrophotometer; type: physicochemical; conditions: 1% by weight, 1 cm cuvette
Procedure: A scytonemin sample obtained according to Example 1 was dissolved in DMSO (dimethylsulfoxide) to a concentration of 1% by weight and subsequently, with a spectrophotometer used according to the standard procedures (manufacturer: Varian, model: CARY 100 Scan) absorbance was measured for two wavelengths (305 and 393 nm) in a cuvette with 1 cm thickness.

Substance: scytonemin
- dispersion level ([1]; 0.5 mg in 1 g 2-octyldodecan-1-ol ODD (solution 5)): Relatively high dispersion level
- dispersion level ([1]; 0.5 mg in 1 g SLP Emulsifier (solution 6)): Low dispersion level
- dispersion level ([1]; 0.5 mg in 1 g glycerin (solution 3)): Low dispersion level
- dispersion level ([1]; 0.5 mg in 1 g isohexadecane (solution 4)): High dispersion level
- dispersion level ([1]; 0.5 mg in 1 g propylene glycol (solution 1)): High dispersion level
- dispersion level ([1]; 0.5 mg in 1 g refined apricot oil (solution 2)): Very low dispersion level
- dispersion / dissolution in raw material base ([1]; 0.5 mg in 5 g glycerin+glycerol stearate+water+silica+alcohol (composition 7), stirred 5 min): did not dissolve but disintegrated into smaller particles
- Maximum of weight loss (decomposition maximum) [2]: 380.3 °C
- T range of decomposition [2]: 365.4-380.3 °C
- absorbance spectra before and after the storage test [3]: identical
- characteristic absorbance spectra after continuous UVA irradiation ([4]; 2 months, UVA 5 W/m2): practically unchanged
- characteristic absorbance spectra after heating ([4]; heating to 60° C. for 2 months): practically unchanged
- Specific extinction/1% at 305 nm ([5]; 305 nm): 330
- Specific extinction/1% to 393 nm ([5]; 393 nm): 730
